The results in this text go back to ChEMBL document CHEMBL1134687, “Synthesis and structure-activity relationships of naphthamides as dopamine D3 receptor ligands” (J Med Chem, 2001).

One test concerns the target D(2) dopamine receptor (Rattus norvegicus, UniProt P61169). Put plainly: Binding affinity for dopamine receptor D2 long expressed in Sf9 cells using [125I]IABN radioligand.
The target of the next test is D(3) dopamine receptor (Rattus norvegicus, UniProt P19020). Put plainly: biochemical.
Chain of D(3) dopamine receptor (P19020 whole entry): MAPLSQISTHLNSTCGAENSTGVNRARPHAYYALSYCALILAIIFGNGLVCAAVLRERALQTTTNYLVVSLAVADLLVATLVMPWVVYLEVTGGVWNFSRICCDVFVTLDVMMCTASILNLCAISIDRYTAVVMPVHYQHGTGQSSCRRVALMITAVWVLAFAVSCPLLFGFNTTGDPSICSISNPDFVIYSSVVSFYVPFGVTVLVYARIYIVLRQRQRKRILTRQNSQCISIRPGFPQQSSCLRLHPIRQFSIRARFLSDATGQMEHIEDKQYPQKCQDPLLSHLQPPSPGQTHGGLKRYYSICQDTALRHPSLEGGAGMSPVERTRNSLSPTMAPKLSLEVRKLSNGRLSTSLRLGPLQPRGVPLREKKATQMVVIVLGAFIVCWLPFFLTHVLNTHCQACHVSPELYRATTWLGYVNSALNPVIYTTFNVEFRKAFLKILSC
The target of test [1] is Sigma 2 receptor. Also noted: species or system Rattus norvegicus, Liver, Membrane.
In test [2] the target is Sigma 2 receptor. Put plainly: Binding affinity for sigma-2 receptor measured on rat liver membranes using [3H]DTG as radioligand in the presence of (+)-pentazocine. Further details: species or system Membrane.

Chain of D(2) dopamine receptor (P61169 whole entry): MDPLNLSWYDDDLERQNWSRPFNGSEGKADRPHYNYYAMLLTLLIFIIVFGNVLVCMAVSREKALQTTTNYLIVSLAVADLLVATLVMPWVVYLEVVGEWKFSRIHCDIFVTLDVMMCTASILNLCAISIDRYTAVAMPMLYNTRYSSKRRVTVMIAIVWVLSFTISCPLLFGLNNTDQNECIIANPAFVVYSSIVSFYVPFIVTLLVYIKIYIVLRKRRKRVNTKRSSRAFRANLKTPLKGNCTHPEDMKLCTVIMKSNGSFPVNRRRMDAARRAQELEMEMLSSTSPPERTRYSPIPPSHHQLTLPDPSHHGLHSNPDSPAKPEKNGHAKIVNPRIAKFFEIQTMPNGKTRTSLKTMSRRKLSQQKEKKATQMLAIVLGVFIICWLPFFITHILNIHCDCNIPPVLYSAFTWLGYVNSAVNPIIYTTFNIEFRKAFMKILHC
Description for D(3) dopamine receptor: Binding affinity for dopamine receptor D3 expressed in Sf9 cells using [125I]IABN the radioligand.

In the case of `COc1c(C(=O)NC[C@H]2CCCN2C2CCC2)cc(Br)c2ccccc12`, the affinity on D(2) dopamine receptor corresponds to a Ki of 277 nM.
In the case of `COc1c(C(=O)NC[C@@H]2CCCN2C2CCCCCC2)cc(Br)c2ccccc12`, the Ki on D(3) dopamine receptor was determined as 50 nM.
As for `COc1c(C(=O)NC[C@H]2CCCN2C2CCCC2)cc(Br)c2ccccc12`, the Ki was determined as 157 nM at D(2) dopamine receptor and 35 nM on Sigma 2 receptor [1].
On to `COc1c(C(=O)N[C@H]2CCN(C3CCCC3)C2)cc(Br)c2ccccc12`, for which the Ki at D(2) dopamine receptor was determined as 19 nM; on Sigma 2 receptor [1] it was 27 nM; on D(3) dopamine receptor, 2.5 nM.
As to `COc1c(C(=O)NC[C@@H]2CCCN2C2CCC2)cc(Br)c2ccccc12`, the inhibition constant Ki at D(2) dopamine receptor turned out to be 11.8 nM.
Turning to `COc1c(C(=O)NC2CC3CCCC(C2)N3C2CCCCCC2)cc(Br)c2ccccc12` (stereo not drawn), the values for the Ki on D(2) dopamine receptor, on Sigma 2 receptor [1] and at D(3) dopamine receptor were 152 nM, 7.9 nM and 41 nM, respectively.
The like results for `COc1c(C(=O)N[C@@H]2CCN(Cc3ccccc3)C2)cc(Br)c2ccccc12` were, in that order, 12 nM, 20.8 nM and 1.6 nM.
The like results for `COc1c(C(=O)N[C@@H]2CCN(C3C4CCCC3CCC4)C2)cc(Br)c2ccccc12` (stereo partly drawn) were, in that order, 75 nM, 279 nM and 13.2 nM.
On to `COc1c(C(=O)NC[C@@H]2CCCN2C2CCCCC2)cc(Br)c2ccccc12`, for which the Ki at D(2) dopamine receptor is 442 nM; on Sigma 2 receptor [1], 147 nM; on D(3) dopamine receptor it was 334 nM.
The like results for `COc1c(C(=O)N[C@@H]2CCN(C3CCCCC3)C2)cc(Br)c2ccccc12` were, in that order, 74 nM, 9.8 nM and 5.7 nM.
The like results for `COc1c(C(=O)N[C@@H]2CCN(C3CCCCCC3)C2)cc(Br)c2ccccc12` were, in that order, 19 nM, 10 nM and 2.9 nM.
For the compound `COc1c(C(=O)NC[C@@H]2CCCN2C2C3CCCC2CCC3)cc(Br)c2ccccc12` (stereo partly drawn), the Ki at D(2) dopamine receptor came out at 26 nM; on Sigma 2 receptor [1] it was 267 nM; at D(3) dopamine receptor it was 7.5 nM.
Consider `COc1c(C(=O)NC[C@@H]2CCCN2Cc2ccccc2)cc(Br)c2ccccc12`, for which the Ki at D(2) dopamine receptor was 151 nM; on Sigma 2 receptor [1], 222 nM; on D(3) dopamine receptor, 14.6 nM.
With `COc1c(C(=O)NC2CCN(C3[C@H]4C[C@@H]5C[C@@H](C[C@H]3C5)C4)CC2)cc(Br)c2ccccc12` (stereo partly drawn), the Ki was determined as 96 nM at D(2) dopamine receptor, 55 nM at Sigma 2 receptor [1] and 92 nM at D(3) dopamine receptor.
For the compound `COc1c(C(=O)N[C@H]2CCN(C3CCCCC3)C2)cc(Br)c2ccccc12`, the figures for the Ki at Sigma 2 receptor [1] and on D(3) dopamine receptor were 25 nM and 0.8 nM, respectively.
As to `COc1c(C(=O)N[C@@H]2CCN(C3CCCC3)C2)cc(Br)c2ccccc12`, the results for the Ki on D(2) dopamine receptor, at Sigma 2 receptor [1] and on D(3) dopamine receptor were 283 nM, 15.3 nM and 75 nM, respectively.
On to `COc1c(C(=O)NC[C@@H]2CCCN2C2[C@H]3C[C@@H]4C[C@@H](C[C@H]2C4)C3)cc(Br)c2ccccc12` (stereo partly drawn), for which the Ki amounted to 141 nM at Sigma 2 receptor [1] and 68 nM on D(3) dopamine receptor.
For `COc1c(C(=O)NC2CC3CCCC(C2)N3Cc2ccccc2)cc(Br)c2ccccc12` (stereo not drawn), the figures for the Ki at D(2) dopamine receptor, on Sigma 2 receptor [1] and on D(3) dopamine receptor were 0.2 nM, 250 nM and 0.04 nM, respectively.
In the same order, the values of `COc1c(C(=O)NC[C@H]2CCCN2C2CCCCC2)cc(Br)c2ccccc12` are 58 nM, 25 nM and 3.2 nM.
`COc1c(C(=O)NC[C@H]2CCCN2C2CCCCCC2)cc(Br)c2ccccc12` showed a Ki at D(3) dopamine receptor of 2.4 nM.
Turning to `COc1c(C(=O)NC[C@H]2CCCN2C2[C@H]3C[C@@H]4C[C@@H](C[C@H]2C4)C3)cc(Br)c2ccccc12` (stereo partly drawn), the Ki on Sigma 2 receptor [1] was found to be 317 nM; on D(3) dopamine receptor, 2.6 nM.
For `COc1c(C(=O)NC2CCN(Cc3ccccc3)CC2)cc(Br)c2ccccc12`, the Ki on Sigma 2 receptor [2] is 35 nM; on D(3) dopamine receptor, 1.1 nM.
For `COc1c(C(=O)N[C@H]2CCN(C3CCCCCC3)C2)cc(Br)c2ccccc12`, the Ki on D(2) dopamine receptor stood at 1.8 nM; on D(3) dopamine receptor, 0.2 nM.
Consider `COc1c(C(=O)N[C@@H]2CCN(C3[C@H]4C[C@@H]5C[C@@H](C[C@H]3C5)C4)C2)cc(Br)c2ccccc12` (stereo partly drawn), for which the Ki at Sigma 2 receptor [1] came out at 21.4 nM; at D(3) dopamine receptor, 13 nM.
With `COc1c(C(=O)NC[C@@H]2CCCN2C2CCCC2)cc(Br)c2ccccc12`, the Ki on D(2) dopamine receptor is 59 nM; at Sigma 2 receptor [1] it was 51 nM.
Regarding `COc1c(C(=O)NC2CCN(C3CCCC3)CC2)cc(Br)c2ccccc12`, the Ki on D(2) dopamine receptor came to 210 nM; at Sigma 2 receptor [1], 6.8 nM; on D(3) dopamine receptor, 899 nM.
Consider `COc1c(C(=O)NC2CCN(C3C4CCCC3CCC4)CC2)cc(Br)c2ccccc12` (stereo not drawn), for which the values for the Ki at D(2) dopamine receptor, on Sigma 2 receptor [1] and at D(3) dopamine receptor were 771 nM, 2.4 nM and 1430 nM, respectively.
For the compound `COc1c(C(=O)NC[C@H]2CCCN2Cc2ccccc2)cc(Br)c2ccccc12`, the figures for the Ki at D(2) dopamine receptor, on Sigma 2 receptor [1] and on D(3) dopamine receptor were 11.4 nM, 207 nM and 1.4 nM, respectively.
In the same order, the values of `COc1c(C(=O)NC2CCN(C3CCCCCC3)CC2)cc(Br)c2ccccc12` are 23 nM, 2.6 nM and 58 nM.
In the same order, the values of `COc1c(C(=O)NC2CC3CCCC(C2)N3C2CCCCC2)cc(Br)c2ccccc12` (stereo not drawn) are 150 nM, 4.8 nM and 48 nM.
Take `COc1c(C(=O)N[C@H]2CCN(C3C4CCCC3CCC4)C2)cc(Br)c2ccccc12` (stereo partly drawn): the Ki on D(2) dopamine receptor was 132 nM; at Sigma 2 receptor [1], 137 nM; at D(3) dopamine receptor, 12 nM.
The like results for `COc1cc(I)cc(C(=O)NC2CC3CCCC(C2)N3Cc2ccccc2)c1OC` (stereo not drawn) were, in that order, 0.05 nM, 419 nM and 0.04 nM.
Consider `COc1c(C(=O)NC2CCN(C3CCCCC3)CC2)cc(Br)c2ccccc12`, for which the values for the inhibition constant Ki at D(2) dopamine receptor, at Sigma 2 receptor [1] and on D(3) dopamine receptor were 94 nM, 2.1 nM and 430 nM, respectively.
The like results for `COc1c(C(=O)N[C@H]2CCN(Cc3ccccc3)C2)cc(Br)c2ccccc12` were, in that order, 9.7 nM, 42 nM and 1 nM.
`COc1c(C(=O)N[C@H]2CCN(C3[C@H]4C[C@@H]5C[C@@H](C[C@H]3C5)C4)C2)cc(Br)c2ccccc12` (stereo partly drawn): the Ki at Sigma 2 receptor [1] amounted to 70 nM; on D(3) dopamine receptor, 0.4 nM.

One may read the Ki as a measure of affinity in units of concentration, obtained from inhibition or displacement.
